From patent US7566733B2, “Benzimidazole derivatives useful as selective androgen receptor modulators (sarms)” (priority 2004, dated 2009) come the findings set out here.

This assay concerns castrated male Sprague Dawley rats. As to the kind of experiment: Ventral Prostate and Seminal Vesicle Weight In Vivo Assay. Further: key: active: the non weight adjusted prostate weight was ≦40 mg or the % Inhibition prostate weight, body weight adjusted was ≧40%@2 mg/day dosage; inactive: did not meet the specified criteria defined above. The following applies: inhibition of testosterone-enhanced prostate weight; immature castrated rats, once daily for five days, usually orally 40 mg/kg, with testosterone propionate 2 mg/kg s.c. The method, then:
Ventral Prostate and Seminal Vesicle Weight In Vivo Assay
Immature (approximately 50 g) castrated male Sprague Dawley rats (Charles River) were treated once daily for five days with test compound (usually given orally at 40 mg/kg in a volume of 0.3 mL, in 30% cyclodextrin or 0.5% methylcellulose vehicle) and with testosterone propionate (given subcutaneously by injection at the nape of the neck at 2 mg/kg, in a volume of 0.1 mL in sesame oil). On the sixth day, the rats were euthanized by asphyxiation in carbon dioxide. Ventral prosatates and seminal vesicles were removed and their wet weights determined. Test compound activity was determined as the percent inhibition of testosterone-enhanced tissue weights, with a vehicle-treated control group set to zero percent and a testosterone alone-treated control group set to 100%.
Representative compounds of the present invention were tested according to the procedure described, with results as listed in Table 7 below. A test compound is listed as “active” if the non weight adjusted prostate weight was ≦40 mg or the % Inhibition prostate weight, body weight adjusted was ≧40%@2 mg/day dosage. ID50's, if determined, of ≦15 mg/day also indicated an “active” compound.
On to `O=C(Cn1c(CC(F)(F)F)nc2cc(Cl)c(Cl)cc21)c1ccc(Br)cc1` [Compound 79, 1-(4-Bromo-phenyl)-2-[5,6-dichloro-2-(2,2,2-trifluoro-ethyl)-benzoimidazol-1-yl]-ethanone], for which the outcome was inactive.

In the case of `CCC(=O)Cn1c(CC(F)(F)F)nc2cc(Cl)c(Cl)cc21` [Compound 80, 1-[5,6-Dichloro-2-(2,2,2-trifluoro-ethyl)-benzoimidazol-1-yl]-butan-2-one], the outcome was active. As for `CCOC(=O)Cn1c(CC(F)(F)F)nc2cc(Cl)c(Cl)cc21` [Compound 81, [5,6-Dichloro-2-(2,2,2-trifluoro-ethyl)-benzoimidazol-1-yl]-acetic Acid Ethyl Ester], the entry is “inactive”; as for `O[C@H](c1nc2cc(Cl)c(Cl)cc2[nH]1)C(F)(F)F` [Compound 82, (−)-1-(5,6-DiChloro-1H-benzoimidazol-2-yl-)2,2,2-trifluoro-ethanol], “active”; as for `O[C@@H](c1nc2cc(Cl)c(Cl)cc2[nH]1)C(F)(F)F` [Compound 83, (+)-1-(5,6-DiChloro-1H-benzoimidazol-2-yl-)2,2,2-trifluoro-ethanol], “active”.

`O=C(Cn1c(CC(F)(F)F)nc2cc(Cl)c(Cl)cc21)c1cc2ccccc2o1` [Compound 84, 1-Benzofuran-2-yl-2-[5,6-dichloro-2-(2,2,2-trifluoro-ethyl)-benzoimidazol-1-yl]-ethanone]: the outcome was inactive. For `O=C(Cn1c(CC(F)(F)F)nc2cc(Cl)c(Cl)cc21)c1ccc(Cl)cc1` [Compound 85, 1-(4-Chloro-phenyl)-2-[5,6-dichloro-2-(2,2,2-trifluoro-ethyl)-benzoimidazol-1-yl]-ethanone], the outcome was inactive. With `COc1cccc(C(=O)Cn2c(CC(F)(F)F)nc3cc(Cl)c(Cl)cc32)c1` [Compound 86, 2-[5,6-Dichloro-2-(2,2,2-trifluoro-ethyl)-benzoimidazol-1-yl]-1-(3-methoxy-phenyl)-ethanone], the result was inactive. For `O=C(Cn1c(CC(F)(F)F)nc2cc(Cl)c(Cl)cc21)c1cccnc1` [Compound 87, 2-[5,6-Dichloro-2-(2,2,2-trifluoro-ethyl)-benzoimidazol-1-yl]-1-pyridin-3-yl-ethanone], the result was inactive. On to `O=C(Cn1c(CC(F)(F)F)nc2cc(Cl)c(Cl)cc21)c1ccc(-c2ccccn2)s1` [Compound 88, 2-[5,6-Dichloro-2-(2,2,2-trifluoro-ethyl)-benzoimidazol-1-yl]-1-(5-pyridin-2-yl-thiophen-2-yl)-ethanone], for which the result was inactive. As for `Fc1ccc(Cn2c(CC(F)(F)F)nc3cc(Cl)c(Cl)cc32)cc1` [Compound 89, 5,6-Dichloro-1-(4-fluoro-benzyl)-2-(2,2,2-trifluoro-ethyl)-1H-benzoimidazole], the entry is “active”; as for `COc1ccccc1C(=O)Cn1c(CC(F)(F)F)nc2cc(Cl)c(Cl)cc21` [Compound 90, 2-[5,6-Dichloro-2-(2,2,2-trifluoro-ethyl)-benzoimidazol-1-yl]-1-(2-methoxy-phenyl)-ethanone], “inactive”; as for `O=C(Cn1c(CC(F)(F)F)nc2cc(Cl)c(Cl)cc21)c1cccs1` [Compound 91, 2-[5,6-Dichloro-2-(2,2,2-trifluoro-ethyl)-benzoimidazol-1-yl]-1-thiophen-2-yl-ethanone], “active”. On to `O=C(Cn1c(CC(F)(F)F)nc2cc(Cl)c(Cl)cc21)c1ccccn1` [Compound 92, 2-[5,6-Dichloro-2-(2,2,2-trifluoro-ethyl)-benzoimidazol-1-yl]-1-pyridin-2-yl-ethanone], for which the outcome was active.

Consider `FC(F)(F)Cc1nc2cc(Cl)c(Cl)cc2n1Cc1cccc(C(F)(F)F)c1` [Compound 93, 5,6-Dichloro-2-(2,2,2-trifluoro-ethyl)-1-(3-trifluoromethyl-benzyl)-1H-benzoimidazole], for which the outcome was active. Next, `Fc1c(F)c(F)c(Cn2c(CC(F)(F)F)nc3cc(Cl)c(Cl)cc32)c(F)c1F` [Compound 94, 5,6-Dichloro-1-pentafluorophenylmethyl-2-(2,2,2-trifluoro-ethyl)-1H-benzoimidazole]: “inactive”; `Cc1cccc(Cn2c(CC(F)(F)F)nc3cc(Cl)c(Cl)cc32)c1` [Compound 95, 5,6-Dichloro-1-(3-methyl-benzyl)-2-(2,2,2-trifluoro-ethyl)-1H-benzoimidazole]: “inactive”. Next, `O=C(Cn1c(CC(F)(F)F)nc2cc(Cl)c(Cl)cc21)c1cccc([N+](=O)[O-])c1` [Compound 96, 2-[5,6-Dichloro-2-(2,2,2-trifluoro-ethyl)-benzoimidazol-1-yl]-1-(3-nitro-phenyl)-ethanone]: “inactive”. As for `FC(F)(F)Cc1nc2cc(Cl)c(Cl)cc2n1Cc1ccccc1` [Compound 97, 1-Benzyl-5,6-dichloro-2-(2,2,2-trifluoro-ethyl)-1H-benzoimidazole], the entry is “active”; as for `OCCn1c(CC(F)(F)F)nc2cc(Cl)c(Cl)cc21` [Compound 98, 2-[5,6-Dichloro-2-(2,2,2-trifluoro-ethyl)-benzoimidazol-1-yl]-ethanol], “active”. Consider `FC(F)(F)Cc1nc2cc(Cl)c(Cl)cc2n1Cc1cccnc1` [Compound 99, 5,6-Dichloro-1-pyridin-3-ylmethyl-2-(2,2,2-trifluoro-ethyl)-1H-benzoimidazole], for which the outcome was active. For `FC(F)(F)Cc1nc2cc(Cl)c(Cl)cc2n1Cc1ccc(C(F)(F)F)cc1` [Compound 100, 5,6-Dichloro-2-(2,2,2-trifluoro-ethyl)-1-(4-trifluoromethyl-benzyl)-1H-benzoimidazole], the outcome was active.

`FC(F)(F)Cc1nc2cc(Cl)c(Cl)cc2n1Cc1ccc(OC(F)(F)F)cc1` [Compound 101, 5,6-Dichloro-2-(2,2,2-trifluoro-ethyl)-1-(4-trifluoromethoxy-benzyl)-1H-benzoimidazole]: the outcome was inactive. As to `FC(F)(F)Cc1nc2cc(Cl)c(Cl)cc2n1Cc1ccccn1` [Compound 102, 5,6-Dichloro-1-pyridin-2-ylmethyl-2-(2,2,2-trifluoro-ethyl)-1H-benzoimidazole], the outcome was active. Consider `O=C(Cn1c(CC(F)(F)F)nc2cc(Cl)c(Cl)cc21)c1ccc2c(c1)OCCO2` [Compound 104, 2-[5,6-Dichloro-2-(2,2,2-trifluoro-ethyl)-benzoimidazol-1-yl]-1-(2,3-dihydro-benzo[1,4]dioxin-6-yl)-ethanone], for which the outcome was inactive. On to `O=[N+]([O-])c1ccc(Cn2c(CC(F)(F)F)nc3cc(Cl)c(Cl)cc32)cc1` [Compound 105, 5,6-Dichloro-1-(4-nitro-benzyl)-2-(2,2,2-trifluoro-ethyl)-1H-benzoimidazole], for which the outcome was active. On to `CO[C@@](C(=O)OC(c1nc2cc(Cl)c(Cl)cc2[nH]1)C(F)(F)F)(c1ccccc1)C(F)(F)F` (stereo partly shown) [Compound 106], for which the result was active. On to `FC(F)(F)Cc1nc2cc(Cl)c(Cl)cc2n1Cc1ccncc1` [Compound 108, 5,6-Dichloro-1-pyridin-4-ylmethyl-2-(2,2,2-trifluoro-ethyl)-1H-benzoimidazole], for which the result was active.
